# Tests used:
# A1AdoR = target: T1, A1AdoR (Homo sapiens, UniProt P30542); test: Adenosine receptor binding assay, A1 ([3H]-DPCPX); settings: ratio A1 vs A2A binding
# T1 construct: purchased PerkinElmer ES-010-M400UA
# T1 sequence (P30542 1-326): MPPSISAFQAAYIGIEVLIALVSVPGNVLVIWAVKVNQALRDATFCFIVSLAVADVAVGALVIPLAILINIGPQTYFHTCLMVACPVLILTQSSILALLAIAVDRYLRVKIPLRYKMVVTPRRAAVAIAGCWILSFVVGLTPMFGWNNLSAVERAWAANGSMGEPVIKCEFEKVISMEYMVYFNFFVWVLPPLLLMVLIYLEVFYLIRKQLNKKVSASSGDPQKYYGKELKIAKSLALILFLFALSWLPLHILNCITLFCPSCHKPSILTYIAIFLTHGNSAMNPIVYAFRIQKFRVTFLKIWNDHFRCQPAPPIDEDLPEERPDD
# Description: (§1) Membranes prepared from CHO-K1 cells stably expressing Human AiAdoR (ES-010-M400UA), HEK-293 cells stably expressing human A2A AdoR (RBHA2AM400UA), HEK-293 cells stably expressing human A2B AdoR (ES-013-M400UA) and CHO-K1 cells stably expressing Human A3 AdoR (ES-012-M400UA) were purchased from PerkinElmer (Waltham, Mass., USA) and stored at −80° C. until use. Binding assays are performed using the radioligands. The final concentrations are as follows: [3H]-DPCPX (PerkinElmer, NET974001MC) at 1 nM for A1AdoR; [^3H]-CGS-21680 (PerkinElmer, NET1021250UC) at 6 nM for A2AAdoR, [3H]-DPCPX (PerkinElmer, NET974001MC) at 8 nM for A2BAdoR; [^3H]-HEMADO (ARC, Cat: ART1456) at 1 nM for A3AdoR. Testing compounds are diluted with DMSO to make 8-point 4-fold serial dilution. Nonspecific binding (Low control: LC) and total binding (High control: HC) are determined in the presence or absence of saturated cold ligand. Specific binding is calculated by subtracting nonspecific binding from total binding. All assays are performed in a final volume of 200 μl containing 1 μl of the test compound in DMSO, 100 μl of membrane preparation, and 99 μl of the radioligand in assay buffer (A1AdoR: 25 mM HEPES pH 7.4, 5 mM MgCl2, 1 mM CaCl2), 100 mM NaCl; A2AAdoR: 50 mM Tris HCl pH 7.4, 10 mM MgCl2, 1 mM EDTA; A2BAdoR: 50 mM HEPES pH 7.0, 5 mM MgCl2, 1 mM EDTA; A3AdoR: 25 HEPES pH 7.4, 10 mM MgCl2, 1 mM CaCl2), 0.5% BSA). The incubation is performed at room temperature with shaking at 300 rpm for 1 hour for A1AdoR, A2BAdoR and A3AdoR and 2 hours for A2AAdoR. After the incubation, the assay mixture is filtered through 96 GF/C filter plates (Perkin Elmer #6005174) using Perkin Elmer Filtermate Harvester, and then washed four times with ice-cold washing buffer (A1AdoR: 25 mM HEPES pH 7.4, 5 mM MgCl2, 1 mM CaCl2), 100 mM NaCl; A2AAdoR: 50 mM Tris HCl pH 7.4, 154 mM NaCl; A2BAdoR: 50 mM HEPES pH 6.5, 5 mM MgCl2, 1 mM EDTA, 0.2% BSA; A3AdoR: 50 mM Tris HCl pH 7.4). The filters are dried for 1 hour at 50° C. and [^3H] trapped on filter counted for radioactivity in Perkin Elmer Microscint 20 cocktail (#6013329) using Perkin Elmer MicroBeta2 Reader. The results are expressed as a percent inhibition of the control radioligand specific binding calculated using the following equation: % Inhibition=(1−(Assay well-Average_LC)/(Average_HC−Average_LC))×100%. Data are analyzed and IC50 is calculated using GraphPad Prism 5 and the model “log(inhibitor) vs. response—Variable slope”. The binding affinity of the compounds is determined by using the Cheng and Prusoff equation Ki=IC50/(1+[radioligand]/Kd).
# human A2A AdoR = target: T2, human A2A AdoR (Homo sapiens, UniProt P29274); test: Adenosine receptor binding assay, A2A ([3H]-CGS-21680); settings: membranes of HEK-293 cells expressing human A2A AdoR; read-out: hA2A IC50
# T2 construct: purchased PerkinElmer RBHA2AM400UA
# Description: as §1
# T2 sequence (P29274 whole entry): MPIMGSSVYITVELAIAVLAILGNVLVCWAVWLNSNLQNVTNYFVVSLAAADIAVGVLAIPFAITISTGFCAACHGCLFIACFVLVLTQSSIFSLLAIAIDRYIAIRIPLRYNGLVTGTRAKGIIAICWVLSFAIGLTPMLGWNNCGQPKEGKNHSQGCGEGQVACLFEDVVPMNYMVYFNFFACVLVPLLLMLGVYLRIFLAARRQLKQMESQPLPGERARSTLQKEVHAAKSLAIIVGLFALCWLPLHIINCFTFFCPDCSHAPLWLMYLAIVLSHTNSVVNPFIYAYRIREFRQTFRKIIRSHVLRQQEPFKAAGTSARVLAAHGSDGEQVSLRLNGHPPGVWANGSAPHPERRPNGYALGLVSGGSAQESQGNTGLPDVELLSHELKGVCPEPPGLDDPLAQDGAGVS
SMILES,IC50 (human A2A AdoR),A1/A2A Selectivity (A1AdoR)
"Nc1nc2c(c(Cl)c(C(=O)O)n2CCN2CCN(c3ccncc3)CC2)c2nc(-c3ccccn3)nn12 [5-amino-9-chloro-2-(pyridin-2-yl)-7-(2-(4-(pyridin-4-yl)piperazin-1-yl)ethyl)-7H-pyrrolo[3,2-e][1,2,4]triazolo[1,5-c]pyrimidine-8-carboxylic acid]",20 to 100 nM,b (greater than 100 but less than or equal to 1000)
"Nc1nc2c(c(Cl)c(C(=O)O)n2CCN2CCN(c3ncccn3)CC2)c2nc(-c3ccccn3)nn12 [5-amino-9-chloro-2-(pyridin-2-yl)-7-(2-(4-(pyrimidin-2-yl)piperazin-1-yl)ethyl)-7H-pyrrolo[3,2-e][1,2,4]triazolo[1,5-c]pyrimidine-8-carboxylic acid]",20 to 100 nM,c (greater than 0 but less than or equal to 100)
"Nc1nc2c(c(Cl)c(C(=O)O)n2CCN2CCN(c3cc(-c4ncco4)ccc3F)CC2)c2nc(-c3ccccn3)nn12 [5-amino-9-chloro-7-(2-(4-(2-fluoro-5-(oxazol-2-yl)phenyl)piperazin-1-yl)ethyl)-2-(pyridin-2-yl)-7H-pyrrolo[3,2-e][1,2,4]triazolo[1,5-c]pyrimidine-8-carboxylic acid]",≤ 20 nM,b (greater than 100 but less than or equal to 1000)
"N#Cc1ccc(N2CCN(CCn3c(C(N)=O)c(Cl)c4c3nc(N)n3nc(-c5ccccn5)nc43)CC2)c(F)c1 [5-amino-9-chloro-7-(2-(4-(4-cyano-2-fluorophenyl)piperazin-1-yl)ethyl)-2-(pyridin-2-yl)-7H-pyrrolo[3,2-e][1,2,4]triazolo[1,5-c]pyrimidine-8-carboxamide]",≤ 20 nM,a (greater than 1000)
"N#Cc1ccc(N2CCN(CCn3c(C(=O)O)c(Cl)c4c3nc(N)n3nc(-c5ccccn5)nc43)CC2)c(F)c1 [5-amino-9-chloro-7-(2-(4-(4-cyano-2-fluorophenyl)piperazin-1-yl)ethyl)-2-(pyridin-2-yl)-7H-pyrrolo[3,2-e][1,2,4]triazolo[1,5-c]pyrimidine-8-carboxylic acid]",≤ 20 nM,b (greater than 100 but less than or equal to 1000)
"Cc1cc(N2CCN(CCn3c(C(N)=O)c(Cl)c4c3nc(N)n3nc(-c5ccccn5)nc43)CC2)c(F)cn1 [5-amino-9-chloro-7-(2-(4-(5-fluoro-2-methylpyridin-4-yl)piperazin-1-yl)ethyl)-2-(pyridin-2-yl)-7H-pyrrolo[3,2-e][1,2,4]triazolo[1,5-c]pyrimidine-8-carboxamide]",≤ 20 nM,c (greater than 0 but less than or equal to 100)
"Cc1cc(N2CCN(CCn3c(C(=O)O)c(Cl)c4c3nc(N)n3nc(-c5ccccn5)nc43)CC2)c(F)cn1 [5-amino-9-chloro-7-(2-(4-(5-fluoro-2-methylpyridin-4-yl)piperazin-1-yl)ethyl)-2-(pyridin-2-yl)-7H-pyrrolo[3,2-e][1,2,4]triazolo[1,5-c]pyrimidine-8-carboxylic acid]",≤ 20 nM,a (greater than 1000)

# The next lines start with results.
IC50 (human A2A AdoR),SMILES,A1/A2A Selectivity (A1AdoR)
≤ 20 nM,"Cc1c(C(N)=O)n(CCN2CCN(c3ccc(C#N)cc3F)CC2)c2nc(N)n3nc(-c4ccccn4)nc3c12 [5-amino-7-(2-(4-(4-cyano-2-fluorophenyl)piperazin-1-yl)ethyl)-9-methyl-2-(pyridin-2-yl)-7H-pyrrolo[3,2-e][1,2,4]triazolo[1,5-c]pyrimidine-8-carboxamide]",b (greater than 100 but less than or equal to 1000)
≤ 20 nM,"Cc1c(C(=O)O)n(CCN2CCN(c3ccc(C#N)cc3F)CC2)c2nc(N)n3nc(-c4ccccn4)nc3c12 [5-amino-7-(2-(4-(4-cyano-2-fluorophenyl)piperazin-1-yl)ethyl)-9-methyl-2-(pyridin-2-yl)-7H-pyrrolo[3,2-e][1,2,4]triazolo[1,5-c]pyrimidine-8-carboxylic acid]",b (greater than 100 but less than or equal to 1000)
≤ 20 nM,"Cc1cc(N2CCN(CCn3c(C(N)=O)c(C)c4c3nc(N)n3nc(-c5ccccn5)nc43)CC2)c(F)cn1 [5-amino-7-(2-(4-(5-fluoro-2-methylpyridin-4-yl)piperazin-1-yl)ethyl)-9-methyl-2-(pyridin-2-yl)-7H-pyrrolo[3,2-e][1,2,4]triazolo[1,5-c]pyrimidine-8-carboxamide]",c (greater than 0 but less than or equal to 100)
≤ 20 nM,"Cc1noc2cc(F)c(N3CCN(CCn4c(C(N)=O)c(C)c5c4nc(N)n4nc(-c6ccccn6)nc54)CC3)cc12 [5-amino-7-(2-(4-(6-fluoro-3-methylbenzo[d]isoxazol-5-yl)piperazin-1-yl)ethyl)-9-methyl-2-(pyridin-2-yl)-7H-pyrrolo[3,2-e][1,2,4]triazolo[1,5-c]pyrimidine-8-carboxamide]",a (greater than 1000)
≤ 20 nM,"NC(=O)c1c(Cl)c2c(nc(N)n3nc(-c4ccccn4)nc23)n1CCN1CCN(c2ccncc2)CC1 [5-amino-9-chloro-2-(pyridin-2-yl)-7-(2-(4-(pyridin-4-yl)piperazin-1-yl)ethyl)-7H-pyrrolo[3,2-e][1,2,4]triazolo[1,5-c]pyrimidine-8-carboxamide]",c (greater than 0 but less than or equal to 100)
≤ 20 nM,"NC(=O)c1c(Cl)c2c(nc(N)n3nc(-c4ccccn4)nc23)n1CCN1CCN(c2ncccn2)CC1 [5-amino-9-chloro-2-(pyridin-2-yl)-7-(2-(4-(pyrimidin-2-yl)piperazin-1-yl)ethyl)-7H-pyrrolo[3,2-e][1,2,4]triazolo[1,5-c]pyrimidine-8-carboxamide]",c (greater than 0 but less than or equal to 100)
≤ 20 nM,"Cc1cnc2c(c1)CN(CCn1c(C(N)=O)c(Cl)c3c1nc(N)n1nc(-c4ccccn4)nc31)CC2 [5-amino-9-chloro-7-(2-(3-methyl-7,8-dihydro-1,6-naphthyridin-6(5H)-yl)ethyl)-2-(pyridin-2-yl)-7H-pyrrolo[3,2-e][1,2,4]triazolo[1,5-c]pyrimidine-8-carboxamide]",c (greater than 0 but less than or equal to 100)
≤ 20 nM,"Nc1nc2c(c(Cl)c(C(=O)O)n2CCN2CCN(c3ccc(F)cc3F)CC2)c2nc(-c3ccccn3)nn12 [5-amino-9-chloro-7-(2-(4-(2,4-difluorophenyl)piperazin-1-yl)ethyl)-2-(pyridin-2-yl)-7H-pyrrolo[3,2-e][1,2,4]triazolo[1,5-c]pyrimidine-8-carboxylic acid]",b (greater than 100 but less than or equal to 1000)
≤ 20 nM,"NC(=O)c1c(Cl)c2c(nc(N)n3nc(-c4ccccn4)nc23)n1CCN1CCN(c2cc(-c3ncco3)ccc2F)CC1 [5-amino-9-chloro-7-(2-(4-(2-fluoro-5-(oxazol-2-yl)phenyl)piperazin-1-yl)ethyl)-2-(pyridin-2-yl)-7H-pyrrolo[3,2-e][1,2,4]triazolo[1,5-c]pyrimidine-8-carboxamide]",a (greater than 1000)

# From patent US20230024108A1, “ADENOSINE A2A RECEPTOR ANTAGONISTS” (Teon Therapeutics, Inc., priority 2019, published 2023)
